The values below come from article PMC8348310, “Antioxidants Isolated from Elaeagnus umbellata (Thunb.) Protect against Bacterial Infections and Diabetes in Streptozotocin-Induced Diabetic Rat Model” (Molecules, 2021).

≈ marks a conversion by molar mass, not a printed value.

For data set [1], the system named is Bacillus cereus. Kind of data set: Broth dilution MIC determination. Format: cell-based. The note with it: 37 °C, 24 h, read-out: Minimum Inhibitory Concentrations. The protocol: (§1) Antibacterial potential of isolated compound was investigated against both Gram-positive and Gram-negative bacterial strains; Escherichia coli, Bacillus cereus, Salmonella typhi, Klebsiella pneumonia, Pseudomonas aeruginosa and Proteus mirabilis. Bacterial strains were provided by the Department of Pharmacy, University of Malakand, Khyber Pakhtunkhwa, Pakistan, and were kept at 4 °C in agar slants in freeze-dried condition until further use.
(§2) Both Gram-positive and Gram-negative bacterial strains Escherichia coli, Bacillus cereus, Salmonella typhi, Klebsiella pneumonia, Pseudomonas aeruginosa and Proteus mirabilis organism viable count per mL in the stock suspension was determined using surface viable counting technique. About 10^8–10^9 colony-forming units (CFU) per mL were used as inoculum in subsequent experiments. A fresh stock suspension was used each time.
(§3) Minimum inhibitory concentrations (MICs) of morin, phloroglucinol, and 1-hexyl benzene were determined using broth dilution method, following the Clinical and Laboratory Standards Institute (CLSI) guidelines. Stock solutions of morin, phloroglucinol, and 1-hexyl benzene were prepared in dimethylsulphoxide (DMSO). The serial dilutions from the stock solution were made ranging from 500 to 3.90 μg/mL using Mueller–Hinton broth. Sterile centrifuge tubes were arranged in sets of rows for each bacterial inoculum to cover the different concentration of isolated compounds in triplicate. The standard bacterial stock suspension 10^8–10^9 CFU/mL, in 100 μL were inoculated into each tube. A sterility control tube and a growth control tube were also incubated (for each strain). The tubes were incubated at 37 °C for 24 h. After incubation, 40 μL of a 0.4 mg/mL solution of para iodonitrotetrazolium (INT) chloride was added to each tube as an indicator of microbial growth. […] The evaluation for the inhibition of microbial growth was based on the color change of INT to pink, while no color change indicates the absence of growth. The MIC is the lowest concentration of the compounds at which there is no visible growth in the tubes. The concentration that inhibited bacterial growth completely (the first clear tube) was taken as the MIC value. Experiments were performed in triplicate and mean values are presented.
(§4) In order to, determine the sensitivity of the bacterial strains, positive control experiments were conducted, taking ampicillin at a starting concentration of 0.10 mg/mL in sterile water while the final concentrations for these experiments ranged from 25.00 to 0.19 μg/mL. A negative control experiment was conducted using only DMSO.
(In general: Broth dilution looks for growth in wells or tubes with falling amounts of substance.)

Data set [2] deals with Escherichia coli. Kind of data set: Broth dilution MIC determination. Format: cell-based. The note with it: 37 °C, 24 h, read-out: Minimum Inhibitory Concentrations. As for the experimental part:
as §1, §2, §3, §4

Data set [3] relates to Klebsiella pneumonia. Kind of data set: Broth dilution MIC determination. In kind it is cell-based. The note with it: Klebsiella pneumoniae, 37 °C, 24 h, read-out: Minimum Inhibitory Concentrations. As for the experimental part: as §1, §2, §3, §4
Data set [4] has as its system Proteus mirabilis. Kind of data set: Broth dilution MIC determination. The note with it: 37 °C, 24 h, read-out: Minimum Inhibitory Concentrations. In kind it is cell-based. As for the experimental part:
as §1, §2, §3, §4

The test system of data set [5] is Pseudomonas aeruginosa. Kind of data set: Broth dilution MIC determination. Format: cell-based. The note with it: 37 °C, 24 h, read-out: Minimum Inhibitory Concentrations. The protocol: as §1, §2, §3, §4
A short description of data set [6]: DPPH free radical scavenging assay. In kind it is biochemical. The settings on record: 125 µg/mL. On the technique in general: Loss of DPPH colour is used to gauge radical scavenging.
The nature of data set [7]: Acute toxicity study. The note with it: oral 50, 100, 150, 200, 250, 300, and 500 mg/kg body weight; observed 4 h, 24 h to 1 week. Format: in vivo, Sprague Dawley adult albino rats. The protocol:
Sprague Dawley adult albino rats (body weight range = 170–200 g) were used in in vivo studies. The animals were purchased from Rifah Institute of Pharmaceutical Sciences Islamabad. The entire animals were given food and fresh water ad libitum. The animals were adjusted at room temperature around 22–25 °C. The animals were housed three rats per cage and maintained with light/dark cycle of about 12 h. All the in vivo procedures were carried out according to the ARRIVE guidelines and approval was taken from the Departmental Animal Ethical Committee (DAEC/2019/1), University of Malakand.
For acute toxicity study all the animals were treated orally with different doses (50, 100, 150, 200, 250, 300, and 500 mg/kg body weight) of isolated compound morin. After that the animals were kept under observation for 4 h for signs of toxicity (respiratory aches, convulsions, motor activity, tremors, muscle spasm, sedation, diarrhea, loss of righting reflex, hypnosis, and salivation). All the animals appeared healthy for 24 h to 1 week with no noticeable changes in appearance or behavior, and no signs of mortality were noticed. […]

The test system of data set [8] is STZ-induced diabetic rats. Kind of data set: STZ-induced diabetic rat model: serum biochemical parameters (liver, renal, lipid profile, HbA1c). Format: in vivo, Sprague Dawley adult albino rats. The protocol: All the animals were separated into nine groups having eight animals each (Table 1). In the current investigational study STZ-induced diabetic model was used to evaluate the anti-hyperglycemic and anti-hyperlipidemic activity of isolated compound morin in chronic multiple dose experiment. All the animals were treated with their respective treatments for 21 days starting daily at 09:00 am. The fasting blood glucose levels were determined at 0, 4th, 7th, 10th, 15th, and 21st days with glucometer from the tail vein. Changes in the body weight were recorded for untreated control, diabetic, and treated groups in fasting condition from day 1 to day 21 of experimental period and are presented as % increase in body weight.
According to the reported protocol diabetes was induced into Sprague Dawley adult albino rats by intraperitoneal injection of STZ (50 mg/kg body weight). Blood samples were collected from the tail vein through glucometer strips by means of SD glucometer and the level of blood glucose was measured 72 h after STZ injection. Normal control groups were given normal saline (8 mL/kg, p.o.) as a vehicle, while isolated compound morin to the treatment groups from 3 days after STZ administration for 3 weeks. Animals with blood glucose levels higher than 300 mg/dL were considered diabetic. During the experiment the blood glucose level and body weights were measured.
On 21st day of in vivo antidiabetic activity, all the animals were anesthetized by intraperitoneal (IP) injection of pentobarbital sodium (35 mg/kg body weight) and euthanized by means of cervical decapitation according to the ARRIVE guidelines. Blood samples were collected by cardiac puncture and transferred to EDTA containing tubes. Blood was centrifuged at 3500 rpm for 10 min for the separation of serum. Biochemical parameters like serum alkaline phosphatase (ALP), serum glutamate pyruvate transaminase (SGPT), serum glutamate oxaloacetate transaminase (SGOT) and lipid parameters like total cholesterol (TC), triglycerides (TG), low-density lipoproteins (LDL), high-density lipoprotein (HDL), and serum creatinine in serum were assessed by using Biochemistry analyzer (PS-520; Shenzhen Procan Electronics-China) using diagnostic kits (Reactivos, GPL Barcelona, Spain). According to the reported protocol an enzyme-linked immunosorbent assay (ELISA) kit was used to evaluate the level of glycosylated hemoglobin (HbA1c).

[9] abbreviates: glibenclamide 0.5 mg/kg, morin 15, 30, and 50 mg/kg, vs diabetic control rats.
Where [10] appears, read: glibenclamide 5 mg/kg, morin 15, 30, and 50 mg/kg body weight, serum, day 21, vs diabetic control.

Regarding `CCCCCCc1ccccc1` [1-Hexyl benzene, 1-hexylbenzene], the MIC came to 135 ± 1.5 µg/mL (≈ 832 µM) in data set [1]; 95 ± 2.1 µg/mL (≈ 585 µM) in data set [2]; 178 ± 2.2 µg/mL (≈ 1100 µM) in data set [3]; 250 ± 1.2 µg/mL (≈ 1540 µM) in data set [4]; 200 ± 1.5 µg/mL (≈ 1230 µM) in data set [5]. Moreover, the “% DPPH Scavenging Mean ± SEM” value in data set [6] was found to be 40 ± 1.1 %.

As to `O=c1c(O)c(-c2ccc(O)cc2O)oc2cc(O)cc(O)c12` [Morin, 2-(2,4-Dihydroxyphenyl)-3,5,7-trihydroxychromen-4-one], in data set [1], the MIC worked out at 21 ± 1.2 µg/mL (≈ 69.5 µM). In addition, the MIC in data set [2] is 25 ± 1.1 µg/mL (≈ 82.7 µM). The MIC in data set [3] was 30 ± 1.4 µg/mL (≈ 99.3 µM). For the same compound, in data set [4], the MIC is 55 ± 1.4 µg/mL (≈ 182 µM). The MIC in data set [5] was 44 ± 1.5 µg/mL (≈ 146 µM). The “acute toxicity (signs of toxicity, mortality)” value in data set [7] was “safe and nontoxic up to 500 mg/kg body weight”. For the same compound, in data set [8] (setting [9]), the HDL cholesterol result is “significantly increased (p < 0.01)”, the HbA1c level result is given as “significant decrease (p < 0.01; p < 0.001)”, the LDL level entry is on record as “significant decrease (p < 0.01; p < 0.001)” and the TC level result is “significant decrease (p < 0.01; p < 0.001)”. In addition, in data set [8] (setting [9]), the TG level entry is on record as “significant decrease (p < 0.01; p < 0.001)”. The serum creatinine level entry in data set [8] (glibenclamide 5 mg/kg, morin 15, 30, and 50 mg/kg body weight, day 21, vs diabetic control) is on record as “significantly reduced (p < 0.01; p < 0.001)”. In data set [8] (setting [10]), the ALP level entry is “significantly reduced (p < 0.01; p < 0.001)”, the SGOT level result is given as “significantly reduced (p < 0.01; p < 0.001)” and the SGPT level entry is on record as “significantly reduced (p < 0.01; p < 0.001)”. For the same compound, the “% DPPH Scavenging Mean ± SEM” value in data set [6] was found to be 68 ± 1.2 %.

`Oc1cc(O)cc(O)c1` [Phloroglucinol, Benzene-1,3,5-triol]: the MIC in data set [1] is 105 ± 1.6 µg/mL (≈ 833 µM); in data set [2], 80 ± 1.4 µg/mL (≈ 634 µM); in data set [3] it was 166 ± 1.5 µg/mL (≈ 1320 µM); in data set [4] it was 205 ± 1.5 µg/mL (≈ 1630 µM); in data set [5] it was 180 ± 2.1 µg/mL (≈ 1430 µM). The “% DPPH Scavenging Mean ± SEM” value in data set [6] was found to be 40 ± 0.5 %.
